Laboratory results reported in US12129267B2, “Heteroaryl amide compounds as sting activators” (Incyte Corporation, priority 2019, dated 2024).

Tested on: IRF3
Assay: IRF3 activation assay in THP-1 Dual Cells
Type: cell-based
Conditions: Homo sapiens, THP1-Dual, 24 hours incubation, QUANTI-Blue readout
Procedure: THP-1 Dual Cells (Invivogen) were maintained in RPMI1640 medium with addition of 10% FBS, 100 μg/mL zeocin, 10 μg/mL blasticidin. Cells were added in a 96-well flat bottom assay plate at 100,000 per well in 100 μL complete RPMI medium. Test compounds were prepared by serial dilution in complete RPMI medium and 100 μL test compounds were transferred to each corresponding well. The assay plate was incubated at 37° C., 5% CO2 for 24 hours. After the overnight incubation, 20 μL of the culture supernatants were collected, followed by addition of 180 μL of QUANTI-Blue (Invivogen) to assess IRF3 activity. The amount of IRF3 activation was assessed by reading the absorbance at 620-655 nm with a microplate reader 2 hours later. The culture supernatant from the untreated THP-1 cells was used as the negative control. To determine the NF-κB activation, another 20 μL of culture supernatant were transferred to a 96-well white plate, followed by addition of 50 μL of Quanti-Luc™ assay solution (Invivogen). The amount of NF-κB activation induced by the test compounds were determined by the luminescence above the untreated control. EC50 determination was performed by fitting the curve of percent control activity versus the log of the compound concentration using the GraphPad Prism 6.0 software.

EC50, < 100 nM:
CCn1nc(C)cc1C(=O)Nc1nc2cc(C(N)=O)c3ccoc3c2n1C/C=C/Cn1c2nc(-c3cc(C)nn3CC)ncc2c2cc(C(N)=O)cc(OC)c21 [Example 1, (E)-1-(4-(6-carbamoyl-2-(1-ethyl-3-methyl-1H-pyrazol-5-yl)-8-methoxy-9H-pyrimido[4,5-b]indol-9-yl)but-2-en-1-yl)-2-(1-ethyl-3-methyl-1H-pyrazole-5-carboxamido)-1H-benzofuro[6,7-d]imidazole-5-carboxamide]
CCn1nc(C)cc1C(=O)Nc1nc2cc(C(N)=O)c3ccoc3c2n1C/C=C/Cn1c2nc(-c3cc(C)nn3CC)ncc2c2cc(C(N)=O)cc(OCCCOC)c21 [Example 2, (E)-1-(4-(6-carbamoyl-2-(1-ethyl-3-methyl-1H-pyrazol-5-yl)-8-(3-methoxypropoxy)-9H-pyrimido[4,5-b]indol-9-yl)but-2-en-1-yl)-2-(1-ethyl-3-methyl-1H-pyrazole-5-carboxamido)-1H-benzofuro[6,7-d]imidazole-5-carboxamide]
CCn1nc(C)cc1C(=O)Nc1nc2cc(C(N)=O)c3ccoc3c2n1C/C=C/Cn1c2nc(-c3cc(C)nn3CC)ncc2c2cc(C(N)=O)cc(OCCCO)c21 [Example 3, (E)-1-(4-(6-carbamoyl-2-(1-ethyl-3-methyl-1H-pyrazol-5-yl)-8-(3-hydroxypropoxy)-9H-pyrimido[4,5-b]indol-9-yl)but-2-en-1-yl)-2-(1-ethyl-3-methyl-1H-pyrazole-5-carboxamido)-1H-benzofuro[6,7-d]imidazole-5-carboxamide]
